Measured values from patent US8101761B2, “(E)-N-{3-[1-(8-fluoro-11H-10-OXA-1-AZA-dibenzo [A,D] cyclohepten-5ylidene)-propyl]-phenyl}-methanesulfonamide as glucocorticoid receptor modulator for the treatment of rheumatoid arthritis” (Eli Lilly and Company, priority 2008, dated 2012).

Key:
[1] = biological target: T1, human progesterone receptor (PR) (Homo sapiens, UniProt P06401); assay: Nuclear hormone receptor functional modulation assay (GRE-luciferase reporter, HEK293), PR; format: cell-based; conditions: agonist mode, mean of n=4 or 5
T1 construct: expressed in transfected cells; host or cells: HEK293, transient transfection, CMV promoter plasmid
T1 sequence (P06401 1-933): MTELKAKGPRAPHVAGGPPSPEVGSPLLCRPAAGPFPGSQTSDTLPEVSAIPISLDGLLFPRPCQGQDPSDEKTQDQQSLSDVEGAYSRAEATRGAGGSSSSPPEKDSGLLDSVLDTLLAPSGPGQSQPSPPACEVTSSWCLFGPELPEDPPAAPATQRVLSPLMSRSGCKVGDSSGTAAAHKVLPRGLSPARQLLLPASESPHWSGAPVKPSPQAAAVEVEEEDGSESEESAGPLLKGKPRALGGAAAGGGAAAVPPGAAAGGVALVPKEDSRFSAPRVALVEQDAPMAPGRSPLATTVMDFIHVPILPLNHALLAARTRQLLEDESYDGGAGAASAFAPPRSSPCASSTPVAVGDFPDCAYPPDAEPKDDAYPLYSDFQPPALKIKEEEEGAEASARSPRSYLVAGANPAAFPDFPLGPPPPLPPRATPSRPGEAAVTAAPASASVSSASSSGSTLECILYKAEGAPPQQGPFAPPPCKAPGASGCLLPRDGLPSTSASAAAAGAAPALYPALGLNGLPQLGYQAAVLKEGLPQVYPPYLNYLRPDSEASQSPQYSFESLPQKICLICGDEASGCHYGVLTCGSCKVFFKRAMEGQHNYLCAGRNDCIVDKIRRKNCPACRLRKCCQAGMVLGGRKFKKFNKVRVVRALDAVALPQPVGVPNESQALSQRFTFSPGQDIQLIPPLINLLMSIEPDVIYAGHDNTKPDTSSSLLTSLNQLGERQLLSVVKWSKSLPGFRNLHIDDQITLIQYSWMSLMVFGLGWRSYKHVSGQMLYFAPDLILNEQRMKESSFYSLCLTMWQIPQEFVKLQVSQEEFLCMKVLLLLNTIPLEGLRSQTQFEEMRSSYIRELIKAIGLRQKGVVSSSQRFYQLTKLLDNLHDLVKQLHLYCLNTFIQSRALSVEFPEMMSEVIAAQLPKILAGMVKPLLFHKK
Description: The solvents, reagents, and ligands employed in the functional assay are readily available from commercial sources, or can be prepared by one of ordinary skill in the art.
Human embryonic kidney HEK293 cells are transfected with steroid hormone receptor and reporter gene plasmids using Fugene™ transfection reagent. Briefly, the reporter plasmid containing two copies of probasin ARE and TK(thymidine kinase) promoter upstream of the luciferase reporter cDNA, is transfected into HEK293 cells with a plasmid constitutively expressing human androgen receptor (AR) using viral CMV(cytomegalovirus) promoter. The reporter plasmid containing two copies of GRE and TK promoter upstream of the luciferase reporter cDNA is transfected with a plasmid constitutively expressing either human glucocorticoid receptor (GR), human mineralocorticoid receptor (MR), or human progesterone receptor (PR) using viral CMV promoter. […] After 24-hours incubation with test compounds, cells are lysed and luciferase activity is determined using standard techniques.
Data are fitted to a four parameter-fit logistic curve fit to determine EC50 values. […] IC50 values may be determined similarly using antagonist mode assay data. Percent inhibitions may also be determined relative to the response in the presence of agonist alone, as described above.

[2] = system: TNF-α production in PMA-differentiated U937 cells; assay: GR-mediated transrepression: LPS-stimulated TNF-α production in PMA-differentiated U937 cells; format: cell-based, human
Procedure: 2. LPS-Stimulated TNF-α Production in PMA-Differentiated U937 Cells:
Human U937 pre-monocytic cells, obtained from ATCC, are grown in complete RPMI 1640 medium containing 10% FBS. To allow monocytes to differentiate to adherent macrophages, U937 cells are washed in calcium, magnesium free and resuspended in fresh RPMI medium containing 20 nM phorbol 12-myristate-13-acetate (PMA) overnight. After differentiation, test compounds are added to the cells in the 96-well plate at various concentrations ranging from about 4.65 pM to 4.64 μM. 1-hour post treatment with test compound, LPS is added at final concentration of 100 ng/ml and the reaction mixture is incubated overnight. 25 μl cell-free supernatant is transferred from each well to another 96-well plate and TNF-α production is measured using an ELISA kit with TNF-α being quantified by reading absorbance at 450 nm.

With `CC/C(=C1\c2ccc(F)cc2OCc2ncccc21)c1cccc(NS(C)(=O)=O)c1` [Compound (I), (E)-N-{3-[1-(8-Fluoro-11H-10-oxa-1-aza-dibenzo[a,d]cyclohepten-5-ylidene)-propyl]-phenyl}-methanesulfonamide] the “efficacy in activating transcription, PR” value ([1]; relative to 30 nM promegestone) was “about 54%”, the EC50 ([1]; read-out: EC50 in activating transcription, PR) was > 10 µM and the IC50 ([2]; Homo sapiens, U-937, LPS 100 ng/ml, average of n=4, read-out: IC50, inhibition of TNF-α expression) was ~0.021 µM. The “maximal inhibition of the endogenous expression of TNF-α” value ([2]; LPS 100 ng/ml, n=4) was ≥ 90%.
